Measurements published in ChEMBL document CHEMBL3588845, “Protozoan Parasite Growth Inhibitors Discovered by Cross-Screening Yield Potent Scaffolds for Lead Discovery” (J Med Chem, 2015).

What was measured:
Trypanosoma cruzi = experiment: Antiparasite activity against Trypanosoma cruzi Tulahuen expressing beta-galactosidase assessed as growth inhibition incubated for 96 hrs by CPRG dye based assay; assay type: functional, organism-based
Leishmania major [1] = experiment: Antiparasite activity against Leishmania major promastigotes assessed as growth inhibition incubated for 44 hrs by alamar blue dye based fluorescence assay; assay type: functional, organism-based
Leishmania major [2] = experiment: Antiparasite activity against luciferase-expressing Leishmania major amastigotes isolated from infected in mouse RAW264.7 cells assessed as growth inhibition incubated for 96 hrs by luciferase reporter gene assay; assay type: functional, organism-based; conditions: RAW264.7, 96 h
Plasmodium falciparum [3] = experiment: Antiparasite activity against Plasmodium falciparum D6 assessed as growth inhibition incubated for 72 hrs by SYBR green fluorescence assay; assay type: functional, organism-based; conditions: D6, 72 h
[4] = Toxicity against human HepG2 cells incubated for 48 hrs by MTT assay; assay type: cell-based; conditions: read-out: TC50
Trypanosoma brucei = experiment: Antiparasite activity against Trypanosoma brucei 427 assessed as growth inhibition incubated for 48 hrs by PrestoBlue based fluorescence assay; assay type: functional, organism-based; conditions: Trypanosoma brucei, 427, 48 h
Plasmodium falciparum [5] = experiment: Antiparasite activity against drug resistant Plasmodium falciparum W2 assessed as growth inhibition incubated for 72 hrs by SYBR green fluorescence assay; assay type: functional, organism-based; conditions: W2, 72 h
Plasmodium falciparum [6] = experiment: Antiparasite activity against drug resistant Plasmodium falciparum C235 assessed as growth inhibition incubated for 72 hrs by SYBR green fluorescence assay; assay type: functional, organism-based; conditions: C235, 72 h

Row | SMILES | EC50 (Trypanosoma cruzi) [µM] | EC50 (Leishmania major [1]) [µM] | EC50 (Leishmania major [2]) [µM] | EC50 (Plasmodium falciparum [3]) [µM] | CC50 at 48 h [4] [µM] | EC50 (Trypanosoma brucei) [µM] | EC50 (Plasmodium falciparum [5]) [µM] | EC50 (Plasmodium falciparum [6]) [µM]
1 | CN1CCCN(S(=O)(=O)c2ccc(-c3ccc4ncnc(Nc5ccc(OCc6cccc(F)c6)c(Cl)c5)c4c3)cc2)CC1 | 0.51 | 3.6 | 2.1 | 0.046 | 1.1 | – | – | –
2 | CN1CCN(S(=O)(=O)c2ccc(-c3cc4c(Nc5ccc(OCc6cccc(F)c6)c(Cl)c5)ncnc4s3)cc2)CC1 | – | – | – | – | > 15 | – | – | –
3 | CN1CCCN(S(=O)(=O)c2ccc(-c3cc4ncnc(Nc5ccc(OCc6cccc(F)c6)c(Cl)c5)c4s3)cc2)CC1 | – | – | – | – | > 15 | – | – | –
4 | CN1CCCN(S(=O)(=O)c2ccc(-c3cc4c(Nc5ccc(OCc6cccc(F)c6)c(Cl)c5)ncnc4s3)cc2)CC1 | – | – | – | – | > 15 | – | – | –
5 | Fc1cccc(COc2ccc(Nc3ccnc4ccc(-c5cccc(N6CCOCC6)c5)cc34)cc2Cl)c1 | 6.6 | 0.9 | 4 | 0.035 | 10 | 1 | 0.096 | 0.043
6 | Fc1cccc(COc2ccc(Nc3ccnc4cc(-c5cccc(N6CCOCC6)c5)ccc34)cc2Cl)c1 | 2.7 | 1.4 | 3.7 | 0.061 | > 5 | 1.2 | 0.18 | 0.08
7 | O=S(=O)(c1ccc(-c2ccc3c(Nc4ccc(OCc5ccccc5)c(Cl)c4)ccnc3c2)cc1)N1CCOCC1 | 3.5 | > 1.5 | > 1.5 | 0.016 | > 3 | 0.24 | 0.044 | 0.018
8 | CN1CCN(S(=O)(=O)c2ccc(-c3ccc4nccc(Nc5ccc(OCc6cccc(F)c6)c(Cl)c5)c4c3)cc2)CC1 | 5.3 | 0.6 | 2 | > 16 | 6.4 | 0.46 | > 16 | > 16
9 | CN1CCCN(S(=O)(=O)c2ccc(-c3ccc4nccc(Nc5ccc(OCc6cccc(F)c6)c(Cl)c5)c4c3)cc2)CC1 | 0.93 | 0.4 | 2.3 | 0.086 | 4.3 | 0.14 | 0.081 | 0.11
10 | CN1CCCN(S(=O)(=O)c2ccc(-c3ccc4c(Nc5ccc(OCc6cccc(F)c6)c(Cl)c5)ccnc4c3)cc2)CC1 | 0.73 | 0.4 | 0.89 | 0.094 | 5 | 0.087 | 0.066 | 0.067
11 | O=S(=O)(c1ccc(-c2ccc3ccnc(Nc4ccc(OCc5ccccc5)c(Cl)c4)c3c2)cc1)N1CCOCC1 | > 50 | > 15 | > 15 | 0.87 | > 25 | > 2.5 | 5.5 | 4
12 | O=S(=O)(c1ccc(-c2ccc3c(Nc4ccc(OCc5ccccc5)c(Cl)c4)nccc3c2)cc1)N1CCOCC1 | > 50 | > 15 | > 3 | 3.4 | > 5 | 0.091 | 3.4 | 3.4
13 | CN1CCN(S(=O)(=O)c2ccc(-c3ccc4ccnc(Nc5ccc(OCc6cccc(F)c6)c(Cl)c5)c4c3)cc2)CC1 | > 50 | > 15 | > 15 | 0.04 | > 15 | 1.8 | 0.2 | 0.089
14 | CN1CCN(S(=O)(=O)c2ccc(-c3ccc4c(Nc5ccc(OCc6cccc(F)c6)c(Cl)c5)nccc4c3)cc2)CC1 | > 50 | 2.7 | > 15 | 0.11 | > 15 | 0.1 | 0.36 | 0.18
15 | CN1CCCN(S(=O)(=O)c2ccc(-c3ccc4ccnc(Nc5ccc(OCc6cccc(F)c6)c(Cl)c5)c4c3)cc2)CC1 | 4.7 | 1.3 | 2.2 | 0.086 | > 15 | 0.73 | 0.27 | 0.1
16 | CN1CCCN(S(=O)(=O)c2ccc(-c3ccc4c(Nc5ccc(OCc6cccc(F)c6)c(Cl)c5)nccc4c3)cc2)CC1 | 33 | 0.44 | 4.4 | 0.41 | > 15 | 0.39 | 2.2 | 1
17 | Fc1cccc(COc2ccc(Nc3cnnc4ccc(-c5cccc(N6CCOCC6)c5)cc34)cc2Cl)c1 | > 50 | > 15 | > 15 | 0.54 | > 15 | 1.1 | 1.5 | 0.69
18 | Fc1cccc(COc2ccc(Nc3cnnc4cc(-c5cccc(N6CCOCC6)c5)ccc34)cc2Cl)c1 | 45 | 9.8 | > 15 | 0.2 | 11 | 0.89 | 0.23 | 0.41
19 | O=S(=O)(c1ccc(-c2ccc3nncc(Nc4ccc(OCc5ccccc5)c(Cl)c4)c3c2)cc1)N1CCOCC1 | > 50 | > 15 | > 15 | 0.82 | > 15 | 1.2 | 0.94 | 1.4
20 | O=S(=O)(c1ccc(-c2ccc3c(Nc4ccc(OCc5ccccc5)c(Cl)c4)cnnc3c2)cc1)N1CCOCC1 | 15 | > 15 | > 15 | 0.15 | > 11 | 1.2 | 0.53 | 0.3
21 | CN1CCN(S(=O)(=O)c2ccc(-c3ccc4nncc(Nc5ccc(OCc6cccc(F)c6)c(Cl)c5)c4c3)cc2)CC1 | > 50 | > 15 | 1.9 | 0.13 | > 15 | 0.98 | 0.29 | 0.14
22 | Fc1cccc(COc2ccc(Nc3ncnc4cc(-c5cccc(N6CCOCC6)c5)sc34)cc2Cl)c1 | – | – | – | – | > 15 | – | – | –
23 | Fc1cccc(COc2ccc(Nc3ncnc4sc(-c5cccc(N6CCOCC6)c5)cc34)cc2Cl)c1 | – | – | – | – | > 15 | – | – | –
24 | O=S(=O)(c1ccc(-c2cc3ncnc(Nc4ccc(OCc5ccccc5)c(Cl)c4)c3s2)cc1)N1CCOCC1 | – | – | – | – | > 5 | – | – | –
25 | O=S(=O)(c1ccc(-c2cc3c(Nc4ccc(OCc5ccccc5)c(Cl)c4)ncnc3s2)cc1)N1CCOCC1 | – | – | – | – | > 15 | – | – | –
26 | CN1CCN(S(=O)(=O)c2ccc(-c3cc4ncnc(Nc5ccc(OCc6cccc(F)c6)c(Cl)c5)c4s3)cc2)CC1 | – | – | – | – | > 15 | – | – | –
27 | C[C@@H]1[C@H](O)[C@@H](C)/C=C/C=C/C=C/C=C/C=C/C=C/C=C/[C@H](O[C@@H]2O[C@H](C)[C@@H](O)[C@H](N)[C@@H]2O)C[C@@H]2O[C@](O)(C[C@@H](O)C[C@@H](O)[C@H](O)CC[C@@H](O)C[C@@H](O)CC(=O)O[C@H]1C)C[C@H](O)[C@H]2C(=O)O [AMPHOTERICIN B] | – | 0.089 | 0.047 | – | – | – | – | –
28 | O=C(Cn1ccnc1[N+](=O)[O-])NCc1ccccc1 [BENZNIDAZOLE] | 1.2 | – | – | – | – | – | – | –
29 | Cc1ccc(C(=O)Nc2ccc(S(=O)(=O)O)c3cc(S(=O)(=O)O)cc(S(=O)(=O)O)c23)cc1NC(=O)c1cccc(NC(=O)Nc2cccc(C(=O)Nc3cc(C(=O)Nc4ccc(S(=O)(=O)O)c5cc(S(=O)(=O)O)cc(S(=O)(=O)O)c45)ccc3C)c2)c1 [SURAMIN] | – | – | – | – | – | 0.04 | – | –
